Experimental data: patent US20240343706A1, “PIPERIDINE-2,6-DIONE DERIVATIVES WHICH BIND TO CEREBLON, AND METHODS OF USE THEREOF” (Captor Therapeutics S.A., priority 2019, published 2024)

What was measured:
IKZF3 = IKZF3 degradation assay, H929 cell line (western blot densitometry); assay type: cell-based; conditions: H929 cells, 6 h
[1] = target: BRD4-compound-CRBN/DDB1 ternary complex (Homo sapiens, UniProt O60885+Q96SW2); assay: BRD4-compound-CRBN/DDB1 ternary complex formation, AlphaLISA homogenous assay; assay type: biochemical; conditions: for EC50: 100 nM His-CRBN/DDB1, 20 nM BRD4, N = 3, read-out: TF50 (compound concentration which mediate the half of maximal response observed for Ternary Complex); for Normalized AUC to dBET1: area under curve 1.63-2500 nM
Method: Biotinylated BRD4 and His-CRBN/DDB1 complex preparations were centrifugated to remove large aggregates (18000 rcf, 4° C., 5 min). Supernatant was collected and protein concentration was determined spectrophotometrically. The AlphaLISA bead-Protein mixtures were prepared: CRBN-acceptor bead (40 μg/ml Anti-6×His beads, 200 nM His-CRBN/DDB1 in PBS pH 7.4 supplemented with 0.1% Tween-20) and BRD4-donor bead (40 μg/ml Streptavidin beads, 40 nM BRD4 in PBS pH 7.4 supplemented with 0.1% Tween-20 and 2 mM DTT). Bead mixes were incubated in dark for 30 minutes at room temperature.
CRBN-acceptor bead mix and BRD4-donor bead mix were combined and dispensed into plate with compounds and DMSO only (10 μl of master mix per well). Final sample composition: 20 μg/ml Anti-6×His beads, 20 μg/ml Stretavidin beads, 100 nM His-CRBN/DDB1, 20 nM BRD4, 2% DMSO, 0.1% Tween-20, 1 mM DTT in PBS pH 7.4, +/− compound. Plate was sealed and covered to protect against light. Sample was mixed using Vibroturbulator. Subsequently, solutions in the plate was centrifugated and incubated in the dark for 30 minutes at 25° C. The plate seal was removed and sample luminescence was determined using Perkin Elmer Enspire plate reader. Readouts were assigned to certain compound concentration. Solutions without compound were utilized to determine background response (an average value) which subsequently was subtracted from raw data collected for compound mixtures.

[2] = target: CRBN-DDB1 protein complex (Homo sapiens, UniProt Q96SW2); assay: Fluorescence polarization (FP) assay, displacement of Cy5-labelled thalidomide; conditions: 25 nM CRBN-DDB1, 5 nM Cy5-labelled thalidomide, read-out: CRBN binding Ki
Summary of the method: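 CRBN-DDB1 mixed with Cy5-thalidomide tracer and test compound, then incubated 60 min at room temperature (20-25 °C) before fluorescence polarization read-out. Ki derived from tracer displacement across a range of compound concentrations.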

IKZF1 = IKZF1 degradation assay, H929 cell line (western blot densitometry); assay type: cell-based; conditions: H929 cells, 6 h
From the text: After primary and secondary Ab staining, the membranes were washed and signals developed. The densitometry analysis was implemented to obtain the numeric values used later in the protein level evaluation process.

BRD4 = BRD4 (Homo sapiens, UniProt O60885); assay: BRD4 degradation assay, H929 cell line (Simple Western); conditions: H929 cells, 6 h
[3] = target: T1, IKZF1-compound-CRBN/DDB1 ternary complex (Homo sapiens, UniProt Q96SW2); assay: IKZF1-compound-CRBN/DDB1 ternary complex formation, AlphaLISA homogenous assay; assay type: biochemical; conditions: AlphaLISA, 0.1, 1 and 10 μM, normalized to Lenalidomide response
T1 construct: Strep-tagged Ikaros (IKZF1 ZF2)
Method: Strep-tagged Ikaros (IKZF1 ZF2) and His-CRBN/DDB1 complex preparations were centrifugated to remove large aggregates (18000 rcf, 4° C., 5 min). Supernatant was collected and protein concentration was determined spectrophotometrically. The AlphaLISA bead-Protein mixtures were prepared: CRBN-acceptor bead (40 μg/ml Anti-6×His beads, 200 nM His-CRBN/DDB1 in PBS pH 7.4 supplemented with 0.1% Tween-20) Ikaros-donor bead mix (40 μg/ml Strep-Tactin beads, 800 nM IKZF1 in PBS pH 7.4 supplemented with 0.1% Tween-20 and 2 mM DTT). Bead mixes were incubated in dark for 30 minutes at room temperature. Tested compounds were dispensed into small volume AlphaPlate (Perkin Elmer) using Echo 555 liquid handler. CRBN-acceptor bead mix and Ikaros-donor bead mix were combined and dispensed into plate with compounds and DMSO only (10 μl of master mix per well). Final sample composition: 20 μg/ml Anti-6×His beads, 20 μg/ml Strep-Tactin beads, 100 nM His-CRBN/DDB1, 400 nM IKZF1, 2% DMSO, 0.1% Tween-20, 1 mM DTT in PBS pH 7.4, +/− compound. Plate was sealed and covered to protect against light. Sample was mixed using Vibroturbulator. […] The plate seal was removed and sample luminescence was determined using Perkin Elmer Enspire plate reader. Readouts were assigned to certain compound concentration. […] The average and standard deviation (SD) were calculated for each compound concentration point. […]

**Q.** Which results are given for `Cc1sc2c(c1C)C(c1ccc(Cl)cc1)=N[C@@H](CC(=O)NCCCCCCCCNC(=O)CCc1nc3c(C(=O)NC4CCC(=O)NC4=O)cccc3[nH]1)c1nnc(C)n1-2` (stereo partly drawn) [Compound 64, 2-(3-((8-(2-((S)-4-(4-chlorophenyl)-2,3,9-trimethyl-6H-thieno[3,2-f][1,2,4]triazolo[4,3-a][1,4]diazepin-6-yl)acetamido)octyl)amino)-3-oxopropyl)-N-(2,6-dioxopiperidin-3-yl)-1H-benzo[d]imidazole-7-carboxamide]?
**A.** % of IKZF3 protein reduction based on densitometry values, IKZF3 Band I (IKZF3; 0.1 μM): ≤25% (≤25% for 0-25% of IKZF3 protein reduction); % of IKZF3 protein reduction based on densitometry values, IKZF3 Band II (IKZF3; 0.1 μM): ≤25% (≤25% for 0-25% of IKZF3 protein reduction); % of IKZF3 protein reduction based on densitometry values, IKZF3 Band I (IKZF3; 1 μM): >25% (>25% for 26-74% of IKZF3 protein reduction); % of IKZF3 protein reduction based on densitometry values, IKZF3 Band II (IKZF3; 1 μM): ≤25% (≤25% for 0-25% of IKZF3 protein reduction); % of IKZF3 protein reduction based on densitometry values, IKZF3 Band I (IKZF3; 10 μM): ≤25% (≤25% for 0-25% of IKZF3 protein reduction); % of IKZF3 protein reduction based on densitometry values, IKZF3 Band II (IKZF3; 10 μM): ≤25% (≤25% for 0-25% of IKZF3 protein reduction); EC50 [1]: 70.5 nM; Normalized AUC to dBET1 [1]: 1.45; Ki [2]: 1000 to 10000 nM; % of IKZF1 α protein reduction based on densitometry values (IKZF1; 0.1 μM): ≤25% (≤25% for 0-25% of IKZF1 protein reduction); % of IKZF1 α protein reduction based on densitometry values (IKZF1; 1 μM): ≤25% (≤25% for 0-25% of IKZF1 protein reduction); % of IKZF1 α protein reduction based on densitometry values (IKZF1; 10 μM): ≤25% (≤25% for 0-25% of IKZF1 protein reduction); BRD4 degradation (in words) (BRD4): can degrade BRD4

**Q.** With `Cc1sc2c(c1C)C(c1ccc(Cl)cc1)=N[C@@H](CC(=O)NCCCCCCCCNC(=O)Cn1c(C)nc3c(C(=O)NC4CCC(=O)NC4=O)cccc31)c1nnc(C)n1-2` (stereo partly drawn) [Compound 65, 1-(2-((8-(2-((S)-4-(4-chlorophenyl)-2,3,9-trimethyl-6H-thieno[3,2-f][1,2,4]triazolo[4,3-a][1,4]diazepin-6-yl)acetamido)octyl)amino)-2-oxoethyl)-N-(2,6-dioxopiperidin-3-yl)-2-methyl-1H-benzo[d]imidazole-4-carboxamide] as the compound, how does the EC50 [1] read?
**A.** Its EC50 is 38.8 nM.

**Q.** And the “Normalized AUC to dBET1” value [1]?
**A.** Its value is 1.22.

**Q.** And the Ki [2]?
**A.** The Ki was < 1000 nM.

**Q.** What about the “IKZF1-compound-CRBN/DDB1 complex formation (in words)” value [3] of the same compound?
**A.** The value was “do not promote IKZF1-compound-CRBN/DDB1 complex formation”.

**Q.** What does the source list for `Cc1nc2c(C(=O)NC3CCC(=O)NC3=O)cc(OCC(=O)NCCCCCCCCNC(=O)C[C@@H]3N=C(c4ccc(Cl)cc4)c4c(sc(C)c4C)-n4c(C)nnc43)cc2[nH]1` (stereo partly drawn) [Compound 66, 5-(2-((8-(2-((S)-4-(4-chlorophenyl)-2,3,9-trimethyl-6H-thieno[3,2-f][1,2,4]triazolo[4,3-a][1,4]diazepin-6-yl)acetamido)octyl)amino)-2-oxoethoxy)-N-(2,6-dioxopiperidin-3-yl)-2-methyl-1H-benzo[d]imidazole-7-carboxamide]?
**A.** % of IKZF3 protein reduction based on densitometry values, IKZF3 Band I (IKZF3; 0.1 μM): ≤25% (≤25% for 0-25% of IKZF3 protein reduction); % of IKZF3 protein reduction based on densitometry values, IKZF3 Band II (IKZF3; 0.1 μM): ≤25% (≤25% for 0-25% of IKZF3 protein reduction); % of IKZF3 protein reduction based on densitometry values, IKZF3 Band I (IKZF3; 1 μM): ≤25% (≤25% for 0-25% of IKZF3 protein reduction); % of IKZF3 protein reduction based on densitometry values, IKZF3 Band II (IKZF3; 1 μM): ≤25% (≤25% for 0-25% of IKZF3 protein reduction); % of IKZF3 protein reduction based on densitometry values, IKZF3 Band I (IKZF3; 10 μM): ≤25% (≤25% for 0-25% of IKZF3 protein reduction); % of IKZF3 protein reduction based on densitometry values, IKZF3 Band II (IKZF3; 10 μM): ≤25% (≤25% for 0-25% of IKZF3 protein reduction); EC50 [1]: 42.1 nM; Normalized AUC to dBET1 [1]: 1.53; Ki [2]: < 1000 nM; % of IKZF1 α protein reduction based on densitometry values (IKZF1; 0.1 μM): ≤25% (≤25% for 0-25% of IKZF1 protein reduction); % of IKZF1 α protein reduction based on densitometry values (IKZF1; 1 μM): ≤25% (≤25% for 0-25% of IKZF1 protein reduction); % of IKZF1 α protein reduction based on densitometry values (IKZF1; 10 μM): ≤25% (≤25% for 0-25% of IKZF1 protein reduction); BRD4 degradation (in words) (BRD4): can degrade BRD4
